According to ChEMBL document CHEMBL1201862, “PubChem BioAssay data set” (2004):
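Results reflect a 48-hour exposure of cells in 96-well plates to compound at five concentrations. GI50 marks 50% less growth.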 Activity calls are given as the source filed them. Cut-off read from the data, not from the text of the source: active = GI50 up to about 1.1 µM and inactive = higher.

Experiments:
Assay in all cases: NCI tumour cell line growth inhibition, 48 h
[1] = tested on: PC-3
[2] = tested on: TK-10
[3] = tested on: HT-29
[4] = tested on: HCT-116
[5] = tested on: SNB-75
[6] = tested on: SK-MEL-28
[7] = tested on: NCI-H23
[8] = tested on: MCF7
[9] = tested on: COLO 205
[10] = tested on: SNB-19
[11] = tested on: OVCAR-5
[12] = tested on: M14
[13] = tested on: SF-268
[14] = tested on: RPMI-8226
[15] = tested on: SR
[16] = tested on: NCI-H522
[17] = tested on: NCI-H226
[18] = tested on: UACC-62
[19] = tested on: HOP-62
[20] = tested on: SK-OV-3

Row | SMILES | GI50 [1] | GI50 [2] | GI50 [3] | GI50 [4] | GI50 [5] | GI50 [6] | GI50 [7] | GI50 [8] | GI50 [9] | GI50 [10] | GI50 [11] | GI50 [12] | GI50 [13] | GI50 [14] | GI50 [15] | GI50 [16] | GI50 [17] | GI50 [18] | GI50 [19] | GI50 [20]
1 | CCOC(=O)c1c(N2CCOCC2)[nH]c(=O)c(C(c2c(O)c(C(=O)OCC)c(N3CCOCC3)[nH]c2=O)C(C)C)c1O | > 100 µM (inactive) | > 100 µM (inactive) | > 100 µM (inactive) | > 100 µM (inactive) | 22.4 µM (inactive) | > 100 µM (inactive) | > 100 µM (inactive) | > 100 µM (inactive) | > 100 µM (inactive) | 83.6 µM (inactive) | 73.8 µM (inactive) | > 100 µM (inactive) | > 100 µM (inactive) | > 100 µM (inactive) | > 100 µM (inactive) | > 100 µM (inactive) | > 100 µM (inactive) | > 100 µM (inactive) | 60.4 µM (inactive) | 86.5 µM (inactive)
2 | NCCCN(CCCN)CCc1cn(C(=O)c2ccccc2)cn1 | 8.63 µM (inactive) | 5.33 µM (inactive) | 11.9 µM (inactive) | 4.86 µM (inactive) | 6.07 µM (inactive) | 13.8 µM (inactive) | 13.2 µM (inactive) | 2.62 µM (inactive) | 3.14 µM (inactive) | 15.1 µM (inactive) | 16.2 µM (inactive) | 4.94 µM (inactive) | 7.8 µM (inactive) | 2.38 µM (inactive) | 2.24 µM (inactive) | 10 µM (inactive) | 9.64 µM (inactive) | 8.57 µM (inactive) | 7.74 µM (inactive) | 11.2 µM (inactive)
3 | C[As+](C)(c1ccc(Br)c([N+](=O)[O-])c1)c1ccc(Br)c([N+](=O)[O-])c1 | > 100 µM (inactive) | > 100 µM (inactive) | > 100 µM (inactive) | > 100 µM (inactive) | > 100 µM (inactive) | 27.9 µM (inactive) | > 100 µM (inactive) | > 100 µM (inactive) | > 100 µM (inactive) | > 100 µM (inactive) | > 100 µM (inactive) | > 100 µM (inactive) | > 100 µM (inactive) | 44.7 µM (inactive) | > 100 µM (inactive) | 87.7 µM (inactive) | > 100 µM (inactive) | > 100 µM (inactive) | > 100 µM (inactive) | > 100 µM (inactive)
4 | CSCCC(C(=O)O)N(C)C (stereo not given) | > 100 µM (inactive) | > 100 µM (inactive) | > 100 µM (inactive) | > 100 µM (inactive) | > 100 µM (inactive) | > 100 µM (inactive) | > 100 µM (inactive) | > 100 µM (inactive) | > 100 µM (inactive) | > 100 µM (inactive) | > 100 µM (inactive) | > 100 µM (inactive) | > 100 µM (inactive) | > 100 µM (inactive) | > 100 µM (inactive) | > 100 µM (inactive) | > 100 µM (inactive) | > 100 µM (inactive) | > 100 µM (inactive) | > 100 µM (inactive)
5 | CN1CCN([C@H]2C[C@H]3[C@@H]4CC=C5C[C@@H](N6CCCC6)CC[C@]5(C)[C@H]4CC[C@]3(C)[C@H]2O)CC1 | 47.9 µM (inactive) | > 100 µM (inactive) | 8 µM (inactive) | 22 µM (inactive) | > 100 µM (inactive) | 20.6 µM (inactive) | > 100 µM (inactive) | > 100 µM (inactive) | 12.6 µM (inactive) | 90.4 µM (inactive) | 50.2 µM (inactive) | 15.6 µM (inactive) | 32.7 µM (inactive) | 24.9 µM (inactive) | < 0.01 µM (active) | > 100 µM (inactive) | > 100 µM (inactive) | 67.3 µM (inactive) | 51.1 µM (inactive) | > 100 µM (inactive)
6 | CCSC1=N/C(=C\c2ccco2)C(Nc2ccc(C)cc2)=N1 | > 100 µM (inactive) | > 100 µM (inactive) | > 100 µM (inactive) | > 100 µM (inactive) | > 100 µM (inactive) | > 100 µM (inactive) | > 100 µM (inactive) | > 100 µM (inactive) | > 100 µM (inactive) | > 100 µM (inactive) | > 100 µM (inactive) | > 100 µM (inactive) | > 100 µM (inactive) | > 100 µM (inactive) | > 100 µM (inactive) | > 100 µM (inactive) | > 100 µM (inactive) | > 100 µM (inactive) | > 100 µM (inactive) | > 100 µM (inactive)
7 | NNC(=O)C(O)C(O)C(O)CO (stereo not given) | > 100 µM (inactive) | > 100 µM (inactive) | > 100 µM (inactive) | > 100 µM (inactive) | > 100 µM (inactive) | > 100 µM (inactive) | > 100 µM (inactive) | > 100 µM (inactive) | > 100 µM (inactive) | > 100 µM (inactive) | > 100 µM (inactive) | > 100 µM (inactive) | > 100 µM (inactive) | > 100 µM (inactive) | 67.8 µM (inactive) | > 100 µM (inactive) | > 100 µM (inactive) | > 100 µM (inactive) | > 100 µM (inactive) | > 100 µM (inactive)
